Measurements from patent publication US20230077362A1 (CORTEVA AGRISCIENCE LLC, priority 2019, published 2023).

Experiments:
[1] = system: Beet Armyworm (Spodoptera exigua) ("BAW"), second instar larvae; assay: Bioassay on beet armyworm (BAW), 128-well diet tray assay; type: in vivo; conditions: Spodoptera exigua, read-out: BAW (Biological Results, rating)
Outline: (§1)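 Mortality (%) is scored well by well after five to seven days at 25° C. on a 14:10 light:dark regime. The value given is the mean of eight wells.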

[2] = system: Cabbage Looper (Trichoplusia ni) ("CL"), second instar larvae; assay: Bioassay on cabbage looper (CL), 128-well diet tray assay; type: in vivo; conditions: Trichoplusia ni, read-out: CL (Biological Results, rating)
Outline: as §1

| Structure (SMILES) | pest or weed control at 50 µg/cm2 [1] [%] | pest or weed control at 50 µg/cm2 [2] [%] |
| --- | --- | --- |
| COc1ccc(C(C)C)c(N2C(=O)CS/C2=N\C(=O)Nc2ccc(-c3ncn(-c4ccc(OC(F)(F)F)cn4)n3)cc2C(F)(F)F)c1 [Compound J277, (Z)-1-(3-(2-Isopropyl-5-methoxyphenyl)-4-oxothiazolidin-2-ylidene)-3-(4-(1-(5-(trifluoromethoxy)pyridin-2-yl)-1H-1,2,4-triazol-3-yl)-2-(trifluoromethyl)phenyl)urea] | 50 to 100 | 50 to 100 |
| CCCc1ccc(N(C)C)cc1N1C(=O)CS/C1=N\C(=O)Nc1ccc(-c2ncn(-c3ccc(OC(F)(F)F)cn3)n2)cc1C(F)(F)F [Compound J278, (Z)-1-(3-(5-(Dimethylamino)-2-propylphenyl)-4-oxothiazolidin-2-ylidene)-3-(4-(1-(5-(trifluoromethoxy)pyridin-2-yl)-1H-1,2,4-triazol-3-yl)-2-(trifluoromethyl)phenyl)urea] | 50 to 100 | 50 to 100 |
| Cc1ccc(C(C)C)c(N2C(=O)CS/C2=N\C(=O)Nc2ccc(-c3ncn(-c4ccc(C(F)(F)F)cn4)n3)cc2F)c1 [Compound J279, (Z)-1-(2-Fluoro-4-(1-(5-(trifluoromethyl)pyridin-2-yl)-1H-1,2,4-triazol-3-yl)phenyl)-3-(3-(2-isopropyl-5-methylphenyl)-4-oxothiazolidin-2-ylidene)urea] | 50 to 100 | 50 to 100 |
| COC(C)c1ccc(C)cc1N1C(=O)CS/C1=N\C(=O)Nc1ccc(-c2ncn(-c3ccc(C(F)(F)F)cn3)n2)cc1F (stereo not drawn) [Compound J280, (Z)-1-(2-Fluoro-4-(1-(5-(trifluoromethyl)pyridin-2-yl)-1H-1,2,4-triazol-3-yl)phenyl)-3-(3-(2-(1-methoxyethyl)-5-methylphenyl)-4-oxothiazolidin-2-ylidene)urea] | 50 to 100 | 50 to 100 |
| Cc1ccc(COCC(F)(F)F)c(N2C(=O)CS/C2=N\C(=O)Nc2ccc(-c3ncn(-c4ccc(C(F)(F)F)cn4)n3)cc2F)c1 [Compound J281, (Z)-1-(2-Fluoro-4-(1-(5-(trifluoromethyl)pyridin-2-yl)-1H-1,2,4-triazol-3-yl)phenyl)-3-(3-(5-methyl-2-((2,2,2-trifluoroethoxy)methyl)phenyl)-4-oxothiazolidin-2-ylidene)urea] | 50 to 100 | 50 to 100 |
| CCCc1ccc(N(C)C)cc1N1C(=O)CS/C1=N\C(=O)Nc1ccc(-c2ncn(-c3ccc(C(F)(F)F)cn3)n2)cc1F [Compound J282, (Z)-1-(3-(5-(Dimethylamino)-2-propylphenyl)-4-oxothiazolidin-2-ylidene)-3-(2-fluoro-4-(1-(5-(trifluoromethyl)pyridin-2-yl)-1H-1,2,4-triazol-3-yl)phenyl)urea] | 50 to 100 | 50 to 100 |
| COc1ccc(C(C)C)c(N2C(=O)CS/C2=N\C(=O)Nc2ccc(-c3ncn(-c4ccc(C(F)(F)F)cn4)n3)cc2F)c1 [Compound J283, (Z)-1-(2-fluoro-4-(1-(5-(trifluoromethyl)pyridin-2-yl)-1H-1,2,4-triazol-3-yl)phenyl)-3-(3-(2-isopropyl-5-methoxyphenyl)-4-oxothiazolidin-2-ylidene)urea] | 50 to 100 | 50 to 100 |
| Cc1ccc(C(C)C)c(N2C(=O)CS/C2=N\C(=O)Nc2ccc(-c3ncn(-c4ccc(C(F)(F)F)cn4)n3)cc2C)c1 [Compound J284, (Z)-1-(3-(2-Isopropyl-5-methylphenyl)-4-oxothiazolidin-2-ylidene)-3-(2-methyl-4-(1-(5-(trifluoromethyl)pyridin-2-yl)-1H-1,2,4-triazol-3-yl)phenyl)urea] | 50 to 100 | 50 to 100 |
| Cc1cc(-c2ncn(-c3ccc(C(F)(F)F)cn3)n2)ccc1NC(=O)/N=C1\SCC(=O)N1c1cc(N(C)C)ccc1C(C)C [Compound J285, (Z)-1-(3-(5-(Dimethylamino)-2-isopropylphenyl)-4-oxothiazolidin-2-ylidene)-3-(2-methyl-4-(1-(5-(trifluoromethyl)pyridin-2-yl)-1H-1,2,4-triazol-3-yl)phenyl)urea] | 50 to 100 | 50 to 100 |
| COC(C)c1ccc(C)cc1N1C(=O)CS/C1=N\C(=O)Nc1ccc(-c2ncn(-c3ccc(C(F)(F)F)cn3)n2)cc1C (stereo not drawn) [Compound J286, (Z)-1-(3-(2-(1-Methoxyethyl)-5-methylphenyl)-4-oxothiazolidin-2-ylidene)-3-(2-methyl-4-(1-(5-(trifluoromethyl)pyridin-2-yl)-1H-1,2,4-triazol-3-yl)phenyl)urea] | 50 to 100 | 50 to 100 |
| CC(C)c1ccc(N(C)C)cc1N1C(=O)CS/C1=N\C(=O)Nc1ccc(-c2ncn(-c3ccc(C#N)cc3)n2)cc1F [Compound J290, (Z)-1-(4-(1-(4-Cyanophenyl)-1H-1,2,4-triazol-3-yl)-2-fluorophenyl)-3-(3-(5-(dimethylamino)-2-isopropylphenyl)-4-oxothiazolidin-2-ylidene)urea] | 50 to 100 | 50 to 100 |
| COc1ccc(C(C)C)c(N2C(=O)CS/C2=N\C(=O)Nc2ccc(-c3ncn(-c4ccc(C(F)(F)F)cn4)n3)cc2C)c1 [Compound J292, (Z)-1-(3-(2-Isopropyl-5-methoxyphenyl)-4-oxothiazolidin-2-ylidene)-3-(2-methyl-4-(1-(5-(trifluoromethyl)pyridin-2-yl)-1H-1,2,4-triazol-3-yl)phenyl)urea] | 50 to 100 | 50 to 100 |
| CCCc1ccc(C)cc1N1C(=O)CS/C1=N\C(=O)Nc1ccc(-c2ncn(-c3ccc(C(F)(F)F)cn3)n2)cc1C [Compound J293, (Z)-1-(3-(5-Methyl-2-propylphenyl)-4-oxothiazolidin-2-ylidene)-3-(2-methyl-4-(1-(5-(trifluoromethyl)pyridin-2-yl)-1H-1,2,4-triazol-3-yl)phenyl)urea] | 50 to 100 | 50 to 100 |
| CCCc1ccc(N(C)C)cc1N1C(=O)CS/C1=N\C(=O)Nc1ccc(-c2ncn(-c3ccc(C(F)(F)F)cn3)n2)cc1C [Compound J294, (Z)-1-(3-(5-(Dimethylamino)-2-propylphenyl)-4-oxothiazolidin-2-ylidene)-3-(2-methyl-4-(1-(5-(trifluoromethyl)pyridin-2-yl)-1H-1,2,4-triazol-3-yl)phenyl)urea] | 50 to 100 | 50 to 100 |
| Cc1ccc(C(C)C)c(N2C(=O)CS/C2=N\C(=O)Nc2ccc(-c3ncn(-c4ccc(C(F)(F)F)cn4)n3)cc2Cl)c1 [Compound J295, (Z)-1-(2-Chloro-4-(1-(5-(trifluoromethyl)pyridin-2-yl)-1H-1,2,4-triazol-3-yl)phenyl)-3-(3-(2-isopropyl-5-methylphenyl)-4-oxothiazolidin-2-ylidene)urea] | 50 to 100 | 50 to 100 |
| CC(C)c1ccc(N(C)C)cc1N1C(=O)CS/C1=N\C(=O)Nc1ccc(-c2ncn(-c3ccc(C(F)(F)F)cn3)n2)cc1Cl [Compound J296, (Z)-1-(2-Chloro-4-(1-(5-(trifluoromethyl)pyridin-2-yl)-1H-1,2,4-triazol-3-yl)phenyl)-3-(3-(5-(dimethylamino)-2-isopropylphenyl)-4-oxothiazolidin-2-ylidene)urea] | 50 to 100 | 50 to 100 |
| Cc1ccc(COCC(F)(F)F)c(N2C(=O)CS/C2=N\C(=O)Nc2ccc(-c3ncn(-c4ccc(C(F)(F)F)cn4)n3)cc2C)c1 [Compound J297, (Z)-1-(3-(5-Methyl-2-((2,2,2-trifluoroethoxy)methyl)phenyl)-4-oxothiazolidin-2-ylidene)-3-(2-methyl-4-(1-(5-(trifluoromethyl)pyridin-2-yl)-1H-1,2,4-triazol-3-yl)phenyl)urea] | 50 to 100 | 50 to 100 |
| COCc1ccc(C)cc1N1C(=O)CS/C1=N\C(=O)Nc1ccc(-c2ncn(-c3ccc(C(F)(F)F)cn3)n2)cc1F [Compound J298, (Z)-1-(2-Fluoro-4-(1-(5-(trifluoromethyl)pyridin-2-yl)-1H-1,2,4-triazol-3-yl)phenyl)-3-(3-(2-(methoxymethyl)-5-methylphenyl)-4-oxothiazolidin-2-ylidene)urea] | 50 to 100 | 50 to 100 |
| CCOCc1ccc(C)cc1N1C(=O)CS/C1=N\C(=O)Nc1ccc(-c2ncn(-c3ccc(C(F)(F)F)cn3)n2)cc1F [Compound J299, (Z)-1-(3-(2-(Ethoxymethyl)-5-methylphenyl)-4-oxothiazolidin-2-ylidene)-3-(2-fluoro-4-(1-(5-(trifluoromethyl)pyridin-2-yl)-1H-1,2,4-triazol-3-yl)phenyl)urea] | 50 to 100 | 50 to 100 |
| COC(C)c1cc(C)ccc1N1C(=O)CS/C1=N\C(=O)Nc1ccc(-c2ncn(-c3ccc(C(F)(F)F)cn3)n2)cc1F (stereo not drawn) [Compound J300, (Z)-1-(2-Fluoro-4-(1-(5-(trifluoromethyl)pyridin-2-yl)-1H-1,2,4-triazol-3-yl)phenyl)-3-(3-(2-(1-methoxyethyl)-4-methylphenyl)-4-oxothiazolidin-2-ylidene)urea] | 50 to 100 | 50 to 100 |
| Cc1ccc(C(C)C)c(N2C(=O)CS/C2=N\C(=O)Nc2ccc(-c3ncn(-c4ccc(C(F)(F)F)cn4)n3)cc2C(F)(F)F)c1 [Compound J301, (Z)-1-(3-(2-Isopropyl-5-methylphenyl)-4-oxothiazolidin-2-ylidene)-3-(2-(trifluoromethyl)-4-(1-(5-(trifluoromethyl)pyridin-2-yl)-1H-1,2,4-triazol-3-yl)phenyl)urea] | 50 to 100 | 50 to 100 |
